Laboratory results from patent US11884675B2, “Heterocyclic compounds as triggering receptor expressed on myeloid cells 2 agonists and methods of use” (AMGEN INC., priority 2020, dated 2024).

Biological target: hTREM2 (Homo sapiens, UniProt Q9NZC2)
Test: TREM2 activity by cellular Syk phosphorylation (AlphaScreen/AlphaLISA) in TREM2/DAP12-HEK cells, used for Examples 1-305
Assay type: cell-based
Set-up: expressed in transfected cells
Conditions: HEK293 Cells
From the text: In vitro Measurement of Triggering Receptor Expressed on Myeloid Cells 2 activity using cellular phosphorylation of Spleen Tyrosine Kinase (“Syk”) Assays used for Examples 1-305
Pharmacological measurements of TREM2 signaling through DAP12 were made with TREM2 and DAP12 overexpressing HEK293 cells stable cell lines that had been single-cell cloned (“TREM2/DAP12-HEK”). The readout of the TREM2 signaling utilized Perkin Elmer AlphaScreen/AlphaLISA technology monitoring the phosphorylation levels of the Syk kinase. TREM2/DAP12-HEK cell lines were cultured in DMEM-F12 (Corning 10-092-CM) supplemented with 1X Penicillin/Streptomycin (Corning 30-002-CI), 1X GlutaMAX (Gibco 35050-061), and 10% Fetal Bovine Serum (Life Technologies 10099) referred to as “HEK Culture Medium”. Suspensions of TREM2/DAP12-HEK cells were prepared in HEK Culture Medium and dispensed into 384-well poly-D-lysine coated microplates (Corning 354661) at a density of 20,000 cells/well using a Multidrop Combi peristaltic microplate dispenser (Thermo), 25 μL volume of cell suspension/well. Plates containing cells were then incubated for 20 hours in a humidified cell culture incubator at 37° C. with 5% CO2 (Thermo). After incubation, culture medium was removed from all wells of each microplate and replaced with 20 μL of “Assay Buffer” comprised of DMEM-F12 (Corning 10-092-CM) supplemented with 1X Penicillin/Streptomycin (Corning 30-002-CI) and 0.1% Pluronic F-68 Polyol (MP Biomedical 092750049) using a Bravo 384-well pipette-based liquid handling system (Agilent). Assay Buffer contained diluted test articles (in 1% final DMSO concentration for compounds) or 100 nM anti-human/mouse TREM2 antibody (R&D Systems MAB17291) as a positive control, or 100 nM or rat IgG2B isotype Ab as a negative control (R&D Systems MAB0061). The plates were incubated with test articles and controls for 45 minutes at room temperature and then the medium was aspirated/removed from each well of the plates. A Multidrop Combi peristaltic liquid handler (Thermo) was used to dispense 15 μL/well of “Cell Lysis Immunoassay Buffer”. The Cell Lysis Immunoassay Buffer contained M-PER Mammalian Protein Extraction Reagent (Pierce/ThermoFisher 78505), 1X Halt Phosphatase Inhibitor Cocktail (ThermoFisher #78427), 0.1875 nM anti-phospho-Syk (Tyr525/526) (C87C1) rabbit mAb (Cell Signaling Technologies catalog #2710), and 1.5 nM biotinylated Mouse anti-human Syk (4D10) antibody (BD Biosciences, catalog #624008). Plates were incubated for 1 hour at room temperature after the addition of the Cell Lysis Immunoassay Buffer. The Multidrop Combi liquid handler was used to dispense 15 μL of AlphaScreen Acceptor Bead Solution containing 7.5 μg/mL anti-rabbit IgG (Fc specific) AlphaLISA Acceptor Beads (Perkin Elmer AL104R) in 1X Immunoassay buffer (Perkin Elmer AL000F) to each well of the microplates. The plates were incubated for 2 hours at room temperature. Following the incubation with the AlphaLISA Acceptor Bead Solution, a Multidrop Combi liquid handler (Thermo) was used to dispense 15 μL of AlphaScreen Donor Bead Solution containing 30 μg/mL of AlphaScreen Streptavidin Donor beads (Perkin Elmer 6760002B) in 1X Immunoassay buffer (Perkin Elmer AL000F) to each well of the microplates. Microplates were incubated for 2 hours protected from light sources as the AlphaScreen reagents are light sensitive. Once the final incubation was completed, an AlphaScreen signal was acquired from the donor and acceptor beads using an Envision high throughput multi-modal microplate reader (Perkin Elmer) calibrated to the plate type with the AlphaScreen mirror and filter-set in 384-well mode, 680 nanometer excitation wavelength. The total measurement time per well was 550 milliseconds with a 180 millisecond excitation time. […]

hTREM2, sequence (Q9NZC2 19-230): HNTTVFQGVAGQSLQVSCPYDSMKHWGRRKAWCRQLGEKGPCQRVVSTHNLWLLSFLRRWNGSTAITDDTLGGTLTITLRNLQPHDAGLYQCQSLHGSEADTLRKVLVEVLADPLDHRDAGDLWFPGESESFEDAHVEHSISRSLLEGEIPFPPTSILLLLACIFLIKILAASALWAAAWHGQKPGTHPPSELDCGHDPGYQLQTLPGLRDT
hTREM2, sequence (O43914 22-113 partner): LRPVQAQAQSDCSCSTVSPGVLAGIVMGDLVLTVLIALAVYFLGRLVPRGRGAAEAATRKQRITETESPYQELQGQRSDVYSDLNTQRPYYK

Row | SMILES | EC50 [nM] | hTREM2 Emax
1 | Cc1ccc2c(n1)nc(N1CCO[C@@H](c3cnn(C4CC4)c3)C1)nc2[C@H]1CC[C@@H](C(F)(F)F)CC1 [Example 144, 2-((2S)-2-(1-cyclopropyl-1H-pyrazol-4-yl)-4-morpholinyl)-7-methyl-4-(cis-4-(trifluoromethyl)cyclohexyl)pyrido [2,3-d]pyrimidine] | 50 to 500 | ++ (Emax>100 and ≤150)
2 | CN1Cc2c(cc(N3CCO[C@@H](c4cnn(C5CC5)c4)C3)nc2-c2ccc(Cl)cc2F)C1=O [Example 120, 4-(4-chloro-2-fluorophenyl)-6-((2S)-2-(1-cyclopropyl-1H-pyrazol-4-yl)-4-morpholinyl)-2-methyl-2,3-dihydro-1H-pyrrolo[3,4-c]pyridin-1-one] | 50 to 500 | ++++ (Emax>250)
3 | Cc1ccc2c(n1)nc(N1CCO[C@@H](c3cnn(C4CC4)c3)C1)nc2[C@H]1C[C@H](C(F)(F)F)C1 [Example 98, 2-((2S)-2-(1-cyclopropyl-1H-pyrazol-4-yl)-4-morpholinyl)-7-methyl-4-(trans-3-(trifluoromethyl)cyclobutyl)pyrido[2,3-d]pyrimidine] | 50 to 500 | ++ (Emax>100 and ≤150)
4 | Cc1nc2cc(N3CCO[C@@H](c4cnn(C5CC5)c4)C3)nc([C@H]3C[C@H](C(F)(F)F)C3)c2nc1C [Example 81, 7-((2S)-2-(1-cyclopropyl-1H-pyrazol-4-yl)-4-morpholinyl)-2,3-dimethyl-5-(trans-3-(trifluoromethyl)cyclobutyl)pyrido[3,4-b]pyrazine] | 50 to 500 | ++ (Emax>100 and ≤150)
5 | Cc1ncc([C@H]2CN(c3nc(-c4ccc(Cl)cc4F)c4cc(C)c(C)nc4n3)CCO2)cn1 (single isomer, unassigned) [Example 107] | ≤ 50 | +++ (Emax>150 and ≤250)
6 | Cc1ccc(-c2nc(N3CCO[C@@H](c4cnn(C)c4)C3)nc3nc(C)c(C)nc23)c(F)c1 [Example 37, 4-(2-fluoro-4-methylphenyl)-6,7-dimethyl-2-((2S)-2-(1-methyl-1H-pyrazol-4-yl)-4-morpholinyl)pteridine] | ≤ 50 | +++ (Emax>150 and ≤250)
7 | Cc1nc2nc([C@@H]3CCO[C@@H](c4cnn(C)c4)C3)cc(-c3ccc(Cl)cc3F)c2nc1C [Example 249, 8-(4-chloro-2-fluorophenyl)-2,3-dimethyl-6-((2R,4R)-2-(1-methyl-1H-pyrazol-4-yl)tetrahydro-2H-pyran-4-yl)pyrido[2,3-b]pyrazine] | 500 to 3000 | +++ (Emax>150 and ≤250)
8 | Cc1ccc(-c2nc(N3CCO[C@@H](c4ccnc(C)c4)C3)nc3nc(C)c(C)nc23)c(F)c1 [Example 39, 4-(2-fluoro-4-methylphenyl)-6,7-dimethyl-2-((2S)-2-(2-methyl-4-pyridinyl)-4-morpholinyl)pteridine] | ≤ 50 | +++ (Emax>150 and ≤250)
9 | Cc1ccc2c(-c3ccc(Cl)cc3F)nc(N3CCO[C@H](c4cnc(C)nc4)C3)nc2n1 (single isomer, unassigned) [Example 89] | 500 to 3000 | +++ (Emax>150 and ≤250)
10 | Cc1ccc(-c2nc(N3CCO[C@@H](c4cnn(C5CC5)c4)C3)nc3nc(C)ccc23)c(F)c1 [Example 95, 2-((2S)-2-(1-cyclopropyl-1H-pyrazol-4-yl)-4-morpholinyl)-4-(2-fluoro-4-methylphenyl)-7-methylpyrido[2,3-d]pyrimidine] | ≤ 50 | +++ (Emax>150 and ≤250)
11 | Cc1nc2nc(N3CC[C@H](C(F)F)C3)nc(-c3ccc(Cl)cc3F)c2nc1C [Example 247, (S)-4-(4-chloro-2-fluorophenyl)-2-(3-(difluoromethyl)pyrrolidin-1-yl)-6,7-dimethylpteridine] | 50 to 500 | +++ (Emax>150 and ≤250)
12 | Cc1ccc2c(-c3ccc(F)cc3F)nc([C@H]3CCO[C@@H](c4cnn(C)c4)C3)nc2n1 [Example 289, 4-(2,4-difluorophenyl)-7-methyl-2-((2R,4S)-2-(1-methyl-1H-pyrazol-4-yl)tetrahydro-2H-pyran-4-yl)pyrido[2,3-d] pyrimidine] | 3000 to 100000 | ++ (Emax>100 and ≤150)
13 | Cn1cc([C@H]2CN(c3cc4ccccc4c(-c4ccc(Cl)cc4F)n3)CCO2)cn1 [Example 235, (S)-4-(1-(4-chloro-2-fluorophenyl)isoquinolin-3-yl)-2-(1-methyl-1H-pyrazol-4-yl)morpholine] | 3000 to 100000 | + (Emax>45 and ≤100)
14 | Cc1nc2nc([C@@H]3CCO[C@H](c4cnn(C5CC5)c4)C3)nc(-c3ccc(F)cc3F)c2nc1C [Example 241, 2-((2S,4R)-2-(1-cyclopropyl-1H-pyrazol-4-yl)tetrahydro-2H-pyran-4-yl)-4-(2,4-difluorophenyl)-6,7-dimethylpteridine] | ≤ 50 | +++ (Emax>150 and ≤250)
15 | Cc1cc2cc(N3CCO[C@@H](c4cnn(C)c4)C3)nc(-c3ccc(Cl)cc3F)c2nc1C [Example 237, (S)-4-(8-(4-chloro-2-fluorophenyl)-2,3-dimethyl-1,7-naphthyridin-6-yl)-2-(1-methyl-1H-pyrazol-4-yl)morpholine] | 3000 to 100000 | +++ (Emax>150 and ≤250)
16 | Cc1nc2cc([C@@H]3CCO[C@H](c4cnn(C)c4)C3)nc(-c3ccc(Cl)cc3F)c2nc1C (single isomer, unassigned) [Example 193] | 50 to 500 | ++++ (Emax>250)
17 | Cc1cnc2c(-c3ccc(Cl)cc3F)nc([C@H]3CCO[C@@H](c4cnn(C5CC5)c4)C3)nc2n1 (single isomer, unassigned) [Example 170] | ≤ 50 | ++++ (Emax>250)
18 | Cc1cc([C@H]2CN(c3nc4nc(C)cnc4c([C@H]4C[C@H](C(F)(F)F)C4)n3)CCO2)cnn1 [Example 279, (S)-4-(7-methyl-4-((1r,3S)-3-(trifluoromethyl)cyclobutyl)pteridin-2-yl)-2-(6-methylpyridazin-4-yl)morpholine] | 500 to 3000 | +++ (Emax>150 and ≤250)
19 | Cc1nc2cc([C@H]3CCO[C@@H](c4cnn(C)c4)C3)nc(-c3ccc(F)cc3F)c2nc1C (single isomer, unassigned) [Example 195] | ≤ 50 | ++++ (Emax>250)
20 | Cc1cc([C@H]2CN(c3nc(-c4ccc(F)cc4F)c4nc(C)c(C)nc4n3)CCO2)ccn1 [Example 33, 4-(2,4-difluorophenyl)-6,7-dimethyl-2-((2S)-2-(2-methyl-4-pyridinyl)-4-morpholinyl)pteridine] | ≤ 50 | ++++ (Emax>250)
21 | Cc1nc2nc(N3CCO[C@@H](c4cnn(C)c4)C3)nc(N3CCC[C@H](F)C3)c2nc1C (single isomer, unassigned) [Example 70] | 500 to 3000 | + (Emax>45 and ≤100)
22 | Cc1ccc2c(-c3ccc(Cl)cc3F)nc([C@@H]3CCO[C@H](c4cnn(C)c4)C3)nc2n1 [Example 288, 4-(4-chloro-2-fluorophenyl)-7-methyl-2-((2S,4R)-2-(1-methyl-1H-pyrazol-4-yl)tetrahydro-2H-pyran-4-yl)pyrido[2,3-d] pyrimidine] | ≤ 50 | ++ (Emax>100 and ≤150)
23 | Cc1ncc([C@@H]2CN(c3nc(-c4ccc(Cl)cc4F)c4nc(C)c(C)nc4n3)CCO2)cn1 (single isomer, unassigned) [Example 25] | ≤ 50 | ++++ (Emax>250)
24 | Cc1nc2nc(N3CCO[C@@H](c4cnn(C)c4)C3)nc(N3CCC(F)(F)CC3)c2nc1C [Example 66, 4-(4,4-difluoro-1-piperidinyl)-6,7-dimethyl-2-((2S)-2-(1-methyl-1H-pyrazol-4-yl)-4-morpholinyl)pteridine] | 500 to 3000 | 
